# Where two headings read alike, the source gives them in different places.
# Legend:
# FKBP12 = target: T1, FKBP12 (Homo sapiens, UniProt P62942); test: Competition fluorescence polarization assay with FITC-rapamycin tracer; assay type: binding
# T1 construct: His-tag (HRV 3C cleavable) (cleaved yes); made in house; host or cells: Escherichia coli BL21(DE3)
# Description: Compound binding affinity was determined using a competition fluorescence polarization assay. […] The assay buffer was 20 mM HEPES pH 7.5 and 0.01% Triton X-100. […] Data were fitted to a three-parameter sigmoidal curve to derive IC50 values. Ki of the compounds were calculated using a tool provided by S. Wang’s laboratory (http://www.umich.edu/~shaomengwanglab/software/calc_ki/index.html). Data were plotted in GraphPad Prism 9.0.
# mTOR = target: T2, mTOR (Homo sapiens, UniProt P42345); test: In vitro mTOR kinase inhibition assay (SelectScreen Z'-LYTE), with or without 10 µM FKBP12; assay type: biochemical; settings: for remaining activity at 4.95 pM / remaining activity at 15.2 pM / remaining activity at 45.7 pM / remaining activity at 0.000137 µM / remaining activity at 0.000412 µM / remaining activity at 0.00123 µM / remaining activity at 0.0111 µM / remaining activity at 0.0333 µM / remaining activity at […]: read-out: residual kinase activity (mTOR); for remaining activity at 0.0333 µM: 33.3 nM drug
# T2 construct: We performed in vitro kinase assays with purified mTOR protein; purchased SelectScreen Services (Thermo Fisher Scientific)
# Description: In vitro kinase inhibition assays were performed by SelectScreen Services (Thermo Fisher Scientific) using either Z’-LYTE (mTOR, Src, Csk, EGFR, HER2 and HGK), Adapta (LRRK2) or LanthaScreen (DDR2) assay format (standardized protocols can be accessed on the SelectScreen website: https://www.thermofisher.com/us/en/home/products-and-services/services/custom-services/screening-and-profiling-services/selectscreen-profiling-service/selectscreen-kinase-profiling-service.html. When indicated, recombinant FKBP12 protein was added to the assay mixture to a final concentration of 10 µM.
# [1] = recombinant FKBP12, Extended Data Fig. 2, read-out: Kd (FKBP12)
# T2 sequence (P42345 1360-2549 limits assumed): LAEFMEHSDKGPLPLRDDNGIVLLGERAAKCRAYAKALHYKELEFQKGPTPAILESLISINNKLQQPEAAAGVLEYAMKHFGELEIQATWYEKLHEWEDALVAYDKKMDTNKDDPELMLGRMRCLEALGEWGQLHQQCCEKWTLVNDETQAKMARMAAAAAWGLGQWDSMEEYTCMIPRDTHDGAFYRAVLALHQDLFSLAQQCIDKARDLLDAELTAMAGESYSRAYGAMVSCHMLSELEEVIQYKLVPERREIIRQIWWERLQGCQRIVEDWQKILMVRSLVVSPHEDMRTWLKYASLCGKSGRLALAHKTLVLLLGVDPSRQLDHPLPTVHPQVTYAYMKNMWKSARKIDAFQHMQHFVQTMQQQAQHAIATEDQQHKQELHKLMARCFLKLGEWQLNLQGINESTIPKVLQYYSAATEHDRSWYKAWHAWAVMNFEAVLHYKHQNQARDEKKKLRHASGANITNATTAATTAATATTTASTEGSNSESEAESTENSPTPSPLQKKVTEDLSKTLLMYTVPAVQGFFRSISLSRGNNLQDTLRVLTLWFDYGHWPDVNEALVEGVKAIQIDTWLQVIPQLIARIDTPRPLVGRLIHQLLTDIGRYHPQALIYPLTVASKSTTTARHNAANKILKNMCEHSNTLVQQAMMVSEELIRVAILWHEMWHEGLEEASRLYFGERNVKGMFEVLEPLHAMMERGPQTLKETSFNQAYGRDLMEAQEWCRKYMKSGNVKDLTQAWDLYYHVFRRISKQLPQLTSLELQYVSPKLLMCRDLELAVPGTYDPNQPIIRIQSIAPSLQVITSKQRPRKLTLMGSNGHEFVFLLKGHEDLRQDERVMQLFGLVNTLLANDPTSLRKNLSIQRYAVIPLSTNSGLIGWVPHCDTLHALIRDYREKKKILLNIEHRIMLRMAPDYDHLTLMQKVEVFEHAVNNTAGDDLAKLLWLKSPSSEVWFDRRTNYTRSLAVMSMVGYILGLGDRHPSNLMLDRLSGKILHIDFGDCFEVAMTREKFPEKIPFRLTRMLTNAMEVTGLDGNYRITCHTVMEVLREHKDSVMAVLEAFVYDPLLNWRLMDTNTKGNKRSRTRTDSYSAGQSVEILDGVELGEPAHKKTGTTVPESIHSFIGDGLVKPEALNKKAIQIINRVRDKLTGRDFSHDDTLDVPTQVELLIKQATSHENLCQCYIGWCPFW
# T1 sequence (P62942 whole entry): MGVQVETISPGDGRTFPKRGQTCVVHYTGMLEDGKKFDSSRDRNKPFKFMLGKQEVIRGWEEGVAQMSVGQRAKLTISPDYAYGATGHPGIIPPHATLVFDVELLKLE
smiles,measurement,setting,value
CCC(C)(C)C(=O)C(=O)N1CCCC[C@H]1C(=O)O[C@H](CCc1ccc(OC)c(OC)c1)c1cccc(NC(=O)CCOCCOCCN)c1 [Compound 03-077],Kd,FKBP12; [1],44 nM
CCC(C)(C)C(=O)C(=O)N1CCCC[C@H]1C(=O)O[C@H](CCc1ccc(OC)c(OC)c1)c1cccc(NC(=O)CCOCCN)c1 [Compound 03-084],Kd,FKBP12; [1],19 nM
CCC(C)(C)C(=O)C(=O)N1CCCC[C@H]1C(=O)O[C@H](CCc1ccc(OC)c(OC)c1)c1cccc(NC(=O)CN)c1 [Compound 01-040],Kd,FKBP12; [1],21 nM
CO[C@H]1C[C@@H](C)C/C(C)=C/[C@@H](CCCSCCN(C)C)C(=O)C[C@H](O)[C@@H](C)[C@@H](/C(C)=C/[C@@H]2CC[C@@H](O)[C@H](OC)C2)OC(=O)[C@@H]2CCCCN2C(=O)C(=O)[C@]2(O)O[C@H]1[C@@H](OC)C[C@H]2C [Compound 05-013],Kd,FKBP12; [1],1.4 nM
CCC(C)(C)C(=O)C(=O)N1CCCC[C@H]1C(=O)O[C@H](CCc1ccc(OC)c(OC)c1)c1cccc(NCC(=O)O)c1 [Compound 01-060A],Kd,FKBP12; [1],46 nM
CO[C@H]1C[C@@H](C)C/C(C)=C/[C@@H](C/C=C/c2cc[n+]([O-])cc2)C(=O)C[C@H](O)[C@@H](C)[C@@H](/C(C)=C/[C@@H]2CC[C@@H](O)[C@H](OC)C2)OC(=O)[C@@H]2CCCCN2C(=O)C(=O)[C@]2(O)O[C@H]1[C@@H](OC)C[C@H]2C [Compound 05-061],Kd,FKBP12; [1],0.2 nM
CCC(C)(C)C(=O)C(=O)N1CCCC[C@H]1C(=O)O[C@H](CCc1ccc(OC)c(OC)c1)c1cccc(OCC(=O)O)c1 [Compound 01-041],Kd,FKBP12; [1],38 nM
CO[C@H]1C[C@@H](C)C/C(C)=C/[C@@H](CCCc2ccccn2)C(=O)C[C@H](O)[C@@H](C)[C@@H](/C(C)=C/[C@@H]2CC[C@@H](O)[C@H](OC)C2)OC(=O)[C@@H]2CCCCN2C(=O)C(=O)[C@]2(O)O[C@H]1[C@@H](OC)C[C@H]2C [05-084 (06-039)],Kd,FKBP12; [1],3.3 nM
C=CC(=O)Nc1cccc([C@@H](CCc2ccc(OC)c(OC)c2)OC(=O)[C@@H]2CCCCN2C(=O)C(=O)C(C)(C)CC)c1 [Compound 02-014],Kd,FKBP12; [1],64 nM
CO[C@H]1C[C@@H](C)C/C(C)=C/[C@@H](CCCSC[C@H](N)C(=O)O)C(=O)C[C@H](O)[C@@H](C)[C@@H](/C(C)=C/[C@@H]2CC[C@@H](O)[C@H](OC)C2)OC(=O)[C@@H]2CCCCN2C(=O)C(=O)[C@]2(O)O[C@H]1[C@@H](OC)C[C@H]2C [Compound 05-037],Kd,FKBP12,8.7 nM
CO[C@H]1C[C@@H](C)C/C(C)=C/[C@@H](C/C=C/c2ccccn2)C(=O)C[C@H](O)[C@@H](C)[C@@H](/C(C)=C/[C@@H]2CC[C@@H](O)[C@H](OC)C2)OC(=O)[C@@H]2CCCCN2C(=O)C(=O)[C@]2(O)O[C@H]1[C@@H](OC)C[C@H]2C [Compound 05-050],Kd,FKBP12; [1],3.6 nM
CCC(C)(C)C(=O)C(=O)N1CCCC[C@H]1C(=O)O[C@H](CCc1ccc(OC)c(OC)c1)c1cccc(NC(=O)CN=[N+]=[N-])c1 [Compound 02-096],Kd,FKBP12; [1],6 nM
CC(C)n1nc(-c2ccc3oc(N)nc3c2)c2c(N)ncnc21 [MLN128],residual kinase activity (mTOR),"mTOR; 0.00495 nM drug, +FKBP",101
same,remaining activity at 4.95 pM,"mTOR; 0.00495 nM drug, +FKBP",103%
same,residual kinase activity (mTOR),"mTOR; 0.00495 nM drug, no FKBP",101
same,remaining activity at 4.95 pM,"mTOR; 0.00495 nM drug, no FKBP",105%
same,residual kinase activity (mTOR),"mTOR; 0.0152 nM drug, +FKBP",105
same,remaining activity at 15.2 pM,"mTOR; 0.0152 nM drug, +FKBP",103%
same,residual kinase activity (mTOR),"mTOR; 0.0152 nM drug, no FKBP",106
same,remaining activity at 15.2 pM,"mTOR; 0.0152 nM drug, no FKBP",101%
same,residual kinase activity (mTOR),"mTOR; 0.0457 nM drug, +FKBP",105
same,remaining activity at 45.7 pM,"mTOR; 0.0457 nM drug, +FKBP",102%
same,residual kinase activity (mTOR),"mTOR; 0.0457 nM drug, no FKBP",104
same,remaining activity at 45.7 pM,"mTOR; 0.0457 nM drug, no FKBP",102%
same,residual kinase activity (mTOR),"mTOR; 0.137 nM drug, +FKBP",101
same,remaining activity at 0.000137 µM,"mTOR; 0.137 nM drug, +FKBP",106%
same,remaining activity at 0.000137 µM,"mTOR; 0.137 nM drug, no FKBP",103%
same,residual kinase activity (mTOR),"mTOR; 0.412 nM drug, +FKBP",96
same,remaining activity at 0.000412 µM,"mTOR; 0.412 nM drug, +FKBP",97%
same,residual kinase activity (mTOR),"mTOR; 0.412 nM drug, no FKBP",98
same,remaining activity at 0.000412 µM,"mTOR; 0.412 nM drug, no FKBP",99%
same,residual kinase activity (mTOR),"mTOR; 1.23 nM drug, +FKBP",83
same,remaining activity at 0.00123 µM,"mTOR; 1.23 nM drug, +FKBP",84%
same,residual kinase activity (mTOR),"mTOR; 1.23 nM drug, no FKBP",81
same,remaining activity at 0.00123 µM,"mTOR; 1.23 nM drug, no FKBP",84%
same,remaining activity at 0.0111 µM,"mTOR; 11.1 nM drug, +FKBP",19%
same,residual kinase activity (mTOR),"mTOR; 11.1 nM drug, no FKBP",17
same,remaining activity at 0.0111 µM,"mTOR; 11.1 nM drug, no FKBP",18%
same,remaining activity at 0.0333 µM,mTOR; +FKBP,6%
same,remaining activity at 0.0333 µM,mTOR; no FKBP,6%
same,residual kinase activity (mTOR),"mTOR; […] drug, +FKBP",53
same,remaining activity at […],"mTOR; […] drug, +FKBP",49%
same,residual kinase activity (mTOR),"mTOR; […] drug, no FKBP",50
same,remaining activity at […],"mTOR; […] drug, no FKBP",48%
CO[C@H]1C[C@@H](C)C/C(C)=C/[C@@H](C/C=C/c2cccc[n+]2[O-])C(=O)C[C@H](O)[C@@H](C)[C@@H](/C(C)=C/[C@@H]2CC[C@@H](O)[C@H](OC)C2)OC(=O)[C@@H]2CCCCN2C(=O)C(=O)[C@]2(O)O[C@H]1[C@@H](OC)C[C@H]2C [Compound 05-060],Kd,FKBP12; [1],0.6 nM
CO[C@H]1C[C@@H](C)C/C(C)=C/[C@@H](CCCc2cc[n+]([O-])cc2)C(=O)C[C@H](O)[C@@H](C)[C@@H](/C(C)=C/[C@@H]2CC[C@@H](O)[C@H](OC)C2)OC(=O)[C@@H]2CCCCN2C(=O)C(=O)[C@]2(O)O[C@H]1[C@@H](OC)C[C@H]2C [Compound 05-092],Kd,FKBP12; [1],2.5 nM
CCC(C)(C)C(=O)C(=O)N1CCCC[C@H]1C(=O)O[C@H](CCc1ccc(OC)c(OC)c1)c1cccc(NC(=O)CNN)c1 [Compound 01-070],Kd,FKBP12; [1],21 nM
CCC(C)(C)C(=O)C(=O)N1CCCC[C@H]1C(=O)O[C@H](CCc1ccc(OC)c(OC)c1)c1cccc(OCCN)c1 [Compound 01-038],Kd,FKBP12; [1],9.4 nM
CCC(C)(C)C(=O)C(=O)N1CCCC[C@H]1C(=O)O[C@H](CCc1ccc(OC)c(OC)c1)c1cccc(NC(=O)Cc2ccccn2)c1 [Compound 03-083],Kd,FKBP12; [1],31 nM
CO[C@H]1C[C@@H](C)C/C(C)=C/[C@@H](C/C=C/c2ccncc2)C(=O)C[C@H](O)[C@@H](C)[C@@H](/C(C)=C/[C@@H]2CC[C@@H](O)[C@H](OC)C2)OC(=O)[C@@H]2CCCCN2C(=O)C(=O)[C@]2(O)O[C@H]1[C@@H](OC)C[C@H]2C [Compound 05-051],Kd,FKBP12; [1],1.2 nM
CO[C@H]1C[C@@H](C)C/C(C)=C/[C@@H](CCCSCCNC(=O)CNc2ccccn2)C(=O)C[C@H](O)[C@@H](C)[C@@H](/C(C)=C/[C@@H]2CC[C@@H](O)[C@H](OC)C2)OC(=O)[C@@H]2CCCCN2C(=O)C(=O)[C@]2(O)O[C@H]1[C@@H](OC)C[C@H]2C [Compound 05-028],Kd,FKBP12; [1],2.5 nM
CCC(C)(C)C(=O)C(=O)N1CCCC[C@H]1C(=O)O[C@H](CCc1ccc(OC)c(OC)c1)c1cccc(NC(=O)CN2CCOCC2)c1 [Compound 01-043],Kd,FKBP12; [1],15 nM
CCC(C)(C)C(=O)C(=O)N1CCCC[C@H]1C(=O)O[C@H](CCc1ccc(OC)c(OC)c1)c1cccc(NCCN)c1 [Compound 02-032],Kd,FKBP12; [1],36 nM
CO[C@H]1C[C@@H](C)C/C(C)=C/[C@@H](CCCc2ccncc2)C(=O)C[C@H](O)[C@@H](C)[C@@H](/C(C)=C/[C@@H]2CC[C@@H](O)[C@H](OC)C2)OC(=O)[C@@H]2CCCCN2C(=O)C(=O)[C@]2(O)O[C@H]1[C@@H](OC)C[C@H]2C [Compound 05-085],Kd,FKBP12,1.5 nM
CCC(C)(C)C(=O)C(=O)N1CCCC[C@H]1C(=O)O[C@H](CCc1ccc(OC)c(OC)c1)c1cccc(NC(=O)CNC(=N)N)c1 [Compound 01-065],Kd,FKBP12; [1],38 nM
CO[C@H]1C[C@@H](C)C/C(C)=C/[C@@H](CCCC(=O)O)C(=O)C[C@H](O)[C@@H](C)[C@@H](/C(C)=C/[C@@H]2CC[C@@H](O)[C@H](OC)C2)OC(=O)[C@@H]2CCCCN2C(=O)C(=O)[C@]2(O)O[C@H]1[C@@H](OC)C[C@H]2C [Compound 05-020],Kd,FKBP12,1.5 nM
CCC(C)(C)C(=O)C(=O)N1CCCC[C@H]1C(=O)O[C@H](CCc1ccc(OC)c(OC)c1)c1cccc(NC(=O)C[N+](C)(C)C)c1 [Compound 01-025],Kd,FKBP12; [1],95 nM
CCC(C)(C)C(=O)C(=O)N1CCCC[C@H]1C(=O)O[C@H](CCc1ccc(OC)c(OC)c1)c1cccc(NC(=O)CN2CCN(C)CC2)c1 [Compound 01-072],Kd,FKBP12; [1],13 nM
CCC(C)(C)C(=O)C(=O)N1CCCC[C@H]1C(=O)O[C@H](CCc1ccc(OC)c(OC)c1)c1cccc(NC(=O)CS)c1 [Compound 02-055],Kd,FKBP12; [1],64 nM
CCC(C)(C)C(=O)C(=O)N1CCCC[C@H]1C(=O)O[C@H](CCc1ccc(OC)c(OC)c1)c1cccc(NC(=O)Cc2cccc[n+]2[O-])c1 [Compound 03-087],Kd,FKBP12; [1],29 nM
CCC(C)(C)C(=O)C(=O)N1CCCC[C@H]1C(=O)O[C@H](CCc1ccc(OC)c(OC)c1)c1cccc(NC(=O)CN(C)C)c1 [Compound 01-044],Kd,FKBP12; [1],13 nM
CO[C@H]1C[C@@H](C)C/C(C)=C/[C@@H](CCCC(=O)Nc2ccccn2)C(=O)C[C@H](O)[C@@H](C)[C@@H](/C(C)=C/[C@@H]2CC[C@@H](O)[C@H](OC)C2)OC(=O)[C@@H]2CCCCN2C(=O)C(=O)[C@]2(O)O[C@H]1[C@@H](OC)C[C@H]2C [Compound 05-064],Kd,FKBP12,0.2 nM
